Reference: patent US6878698B2, “Anti-inflammatory androstane derivatives” (Glaxo Group Limited, priority 2001, dated 2005)
Entries after “also recorded” stand apart in the source; their conditions may differ. Values belong to the compound of their own block, whether it stands above or below them.

Legend:
lung eosinophilia = assay: Ovalbumin sensitised Brown Norway rat eosinophilia model; format: in vivo; conditions: for inhibition of lung eosinophilia: single intra-tracheal dose of 30 μg, suspension in saline, 30 min prior to ovalbumin challenge
Protocol: Pharmacological activity in vivo was assessed in an ovalbumin sensitised Brown Norway rat eosinophilia model. This model is designed to mimic allergen induced lung eosinophilia, a major component of lung inflammation in asthma.

thymus weight = assay: Rat model of thymus involution; format: in vivo; conditions: 3 daily IT doses of 100 μg
human hepatocytes = assay: In vitro metabolism in human hepatocytes; format: in vitro ADME; conditions: 17-β carboxylic acid (X) the only significant metabolite
rat hepatocytes = assay: In vitro metabolism in rat hepatocytes; format: in vitro ADME; conditions: 17-β carboxylic acid (X) the only significant metabolite
[1] = Pharmacokinetics after intra-tracheal dry powder dosing in the pig; format: in vivo; conditions: for time after dosing up to which quantifiable in plasma / AUC (0-inf): 1 mg intra-tracheal dry powder; for time after dosing up to which quantifiable in plasma: LC-MS/MS, lower limits of quantitation 10 and 20 pg/mL; for Cmax: 1 mg intra-tracheal dry powder blend in lactose, anaesthetised; for AUC (0-inf): Example 1 value calculated with plasma half-life from IV dosing
Protocol: Serial blood samples were taken for up to 8 h following dosing.

[2] = Pharmacokinetics after intravenous administration in the anaesthetised pig; format: in vivo; conditions: mixture of the two compounds IV at 0.1 mg/kg
Excerpt: The clearance of these two glucocortocoids is similar is this experimental pig model.

[3] = Pharmacokinetics after intravenous (IV) and oral dosing in rats; conditions: for plasma clearance (in words): in vivo in the rat
in vivo = conditions: male, Wistar Han, rat, plasma, iv, 0.1 mg/kg
glucocorticoid receptor = target: T1, glucocorticoid receptor (Homo sapiens, UniProt P04150); assay: Functional in vitro assay of glucocorticoid agonist activity (A549 cells, NF-κB/ELAM promoter sPAP reporter, TNF stimulated); format: cell-based; conditions: for EC50: A549 cells, NF-κB responsive sPAP reporter, compound 1 hour at 37° C., then TNF 10 ng/ml for 16 hours
T1 construct: A549 cells stably transfected with a reporter gene containing the NF-κB responsive elements from the ELAM gene promoter; endogenous in cells; host or cells: A549 cells stably transfected with the reporter gene only
T1 sequence (P04150 1-777): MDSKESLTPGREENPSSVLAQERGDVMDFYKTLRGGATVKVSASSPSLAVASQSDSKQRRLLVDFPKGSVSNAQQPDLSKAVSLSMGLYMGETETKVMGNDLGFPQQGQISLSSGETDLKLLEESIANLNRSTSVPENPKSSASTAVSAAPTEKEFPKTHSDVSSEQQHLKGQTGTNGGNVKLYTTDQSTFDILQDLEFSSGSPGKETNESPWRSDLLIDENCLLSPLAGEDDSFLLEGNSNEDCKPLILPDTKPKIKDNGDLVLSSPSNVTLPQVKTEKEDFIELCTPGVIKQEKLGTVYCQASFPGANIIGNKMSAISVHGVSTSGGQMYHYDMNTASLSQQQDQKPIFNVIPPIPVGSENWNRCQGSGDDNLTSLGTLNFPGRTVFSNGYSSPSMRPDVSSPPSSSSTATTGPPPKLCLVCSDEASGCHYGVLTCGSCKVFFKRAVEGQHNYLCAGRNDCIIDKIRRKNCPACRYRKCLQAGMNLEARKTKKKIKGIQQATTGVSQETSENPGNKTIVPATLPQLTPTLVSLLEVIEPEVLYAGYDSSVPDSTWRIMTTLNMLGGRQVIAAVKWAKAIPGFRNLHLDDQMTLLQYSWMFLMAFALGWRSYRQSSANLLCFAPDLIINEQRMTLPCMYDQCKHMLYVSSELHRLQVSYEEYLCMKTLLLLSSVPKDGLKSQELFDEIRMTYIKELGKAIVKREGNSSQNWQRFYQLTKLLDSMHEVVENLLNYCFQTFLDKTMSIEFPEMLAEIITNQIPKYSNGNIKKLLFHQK
Protocol: Pharmacological activity was assessed in a functional in vitro assay of glucocorticoid agonist activity which is generally predictive of anti-inflammatory or anti-allergic activity in vivo.
A549 cells stably transfected with a reporter gene containing the NF-κB responsive elements from the ELAM gene promoter coupled to sPAP (secreted alkaline phosphatase) were treated with test compounds at appropriate doses for 1 hour at 37° C. […] Dose response curves were constructed from which EC50 values were estimated.

[4] = target: T2, glucocorticoid receptor (GR) (Homo sapiens, UniProt P04150); assay: Transactivation (GR): renilla luciferase reporter with glucocorticoid response elements in A549 cells; format: cell-based; conditions: GRE renilla luciferase reporter, 1 h compound, then 0.5 ng/ml TNFα, further 15 hours, read-out: Transactivation (GR) ED50
Excerpt: (§1) The glucocorticoid receptor (GR) can function in at least two distinct mechanisms, by upregulating gene expression through the direct binding of GR to specific sequences in gene promoters, and by downregulating gene expression that is being driven by other transcription factors (such as NFκB or AP-1) through their direct interaction with GR.
(§2) The first cell line contains the firefly luciferase reporter gene under the control of a synthetic promoter that specifically responds to activation of the transcription factor NFκB when stimulated with TNFα. The second cell line contains the renilla luciferase reporter gene under the control of a synthetic promotor that comprises 3 copies of the consensus glucocorticoid response element, and which responds to direct stimulation by glucocorticoids. Simultaneous measurement of transactivation and transrepression was conducted by mixing the two cell lines in a 1:1 ratio in 96 well plate (40,000 cells per well) and growing overnight at 37° C. Test compounds were dissolved in DMSO, and added to the cells at a final DMSO concentration of 0.7%. After incubation for 1 h 0.5 ng/ml TNFα (R&D Systems) was added and after a further 15 hours at 37° C., the levels of firefly and renilla luciferase were measured using the Packard Firelite kit following the manufacturers' directions. Dose response curves were constructed from which EC50 values were determined.

[5] = target: T2, glucocorticoid receptor (GR); assay: Transrepression (NFκB): firefly luciferase NFκB reporter in A549 cells stimulated with TNFα; format: cell-based; conditions: 1 h compound, then 0.5 ng/ml TNFα, further 15 hours, read-out: Transrepression (NFκB) ED50
Excerpt: as §1, §2

SMILES: C[C@@H]1CC2C3C[C@H](F)C4=CC(=O)C=C[C@]4(C)[C@@]3(F)[C@@H](O)C[C@]2(C)[C@@]1(OC(=O)c1ccco1)C(=O)SCF (stereo partly drawn) [Example 1, 6α,9α-Difluoro-17α-[(2-furanylcarbonyl)oxy]-11β-hydroxy-16α-methyl-3-oxo-androsta-1,4-diene-17β-carbothioic acid S-fluoromethyl ester]
inhibition of lung eosinophilia (in words) (lung eosinophilia; intra-tracheal suspension in saline 30 min prior to ovalbumin challenge): dose dependant inhibition | inhibition of lung eosinophilia (lung eosinophilia): 69% | reduction of thymus weight (thymus weight): 67% | manner of metabolism (in words) (human hepatocytes): metabolised in an identical manner to fluticasone propionate | manner of metabolism (in words) (rat hepatocytes): metabolised in an identical manner to fluticasone propionate | time after dosing up to which quantifiable in plasma [1]: up to 2 hours | Cmax ([1]; Pig 1): 0.117 ng/mL | AUC (0-inf) ([1]; Pig 1): 0.254 ng·h/mL | Cmax ([1]; Pig 2): 0.081 ng/mL | AUC (0-inf) ([1]; Pig 2): 0.221 ng·h/mL | systemic exposure compared to fluticasone propionate (in words) ([1]; dry powder delivery to the lungs of anaesthetised pigs): markedly reduced systemic exposure; also recorded: significantly lower exposure | clearance (in words) [2]: similar | pharmacokinetic parameters following intravenous administration (in words) [2]: the same | plasma clearance ([3]; IV 0.1 mg/kg, male Wistar Han rats): 2.84 L/h/kg | plasma clearance (in words) [3]: approaching hepatic blood flow

SMILES: CC1CC2C3CC(F)C4=CC(=O)C=CC4(C)C3(F)C(O)CC2(C)C1(OC(=O)c1ccsc1)C(=O)SCF (stereo not drawn) [Example 4, 6α,9α-Difluoro-11β-hydroxy-16α-methyl-3-oxo-17α-[(3-thienylcarbonyl)oxy]-androsta-1,4-diene-17β-carbothioic acid S-fluoromethyl ester]
clearance (in vivo): 2.94 L/h/kg | plasma clearance (in words) [3]: approaching hepatic blood flow

SMILES: Cc1noc(C)c1C(=O)O[C@]1(C(=O)SCF)[C@H](C)C[C@H]2[C@@H]3C[C@H](F)C4=CC(=O)C=C[C@]4(C)[C@@]3(F)[C@@H](O)C[C@@]21C [Example 10, 6α,9α-Difluoro-17α-[(3,5-dimethylisoxazole-4-carbonyl)oxy]-11β-hydroxy-16α-methyl-3-oxo-androsta-1,4-diene-17β-carbothioic acid S-fluoromethyl ester]
EC50 (glucocorticoid receptor): 1 nM

SMILES: C[C@@H]1C[C@H]2[C@@H]3C[C@H](F)C4=CC(=O)C=C[C@]4(C)[C@@]3(F)[C@@H](O)C[C@]2(C)[C@@]1(OC(=O)c1cc(Cl)sc1Cl)C(=O)SCF [Example 14, 17α-[(2,5-Dichlorothiophene-3-carbonyl)oxy]-6α,9α-difluoro-11β-hydroxy-16α-methyl-3-oxo-androsta-1,4-diene-17β-carbothioic acid S-fluoromethyl ester]
EC50 (glucocorticoid receptor): 2 nM

SMILES: Cc1ccoc1C(=O)OC1(C(=O)SCF)C(C)CC2C3CC(F)C4=CC(=O)C=CC4(C)C3(F)C(O)CC21C (stereo not drawn) [Example 19, 6α,9α-Difluoro-11β-hydroxy-16α-methyl-17α-[(3-methylfuran-2-carbonyl)oxy]-3-oxo-androsta-1,4-diene-17β-carbothioic acid S-fluoromethyl ester]
clearance (in vivo): 2.88 L/h/kg | plasma clearance (in words) [3]: approaching hepatic blood flow

SMILES: Cc1nc(C)c(C(=O)O[C@]2(C(=O)SCF)[C@H](C)C[C@H]3[C@@H]4C[C@H](F)C5=CC(=O)C=C[C@]5(C)[C@@]4(F)[C@@H](O)C[C@@]32C)s1 [Example 23, 6α,9α-Difluoro-17α-[(2,4-dimethyl-1,3-thiazole-5-carbonyl)oxy]-11β-hydroxy-16α-methyl-3-oxo-androsta-1,4-diene-17 β-carbothioic acid S-fluoromethyl ester]
EC50 (glucocorticoid receptor): 17 nM

SMILES: Cc1cc(C(=O)OC2(C(=O)SCF)C(C)CC3C4CC(F)C5=CC(=O)C=CC5(C)C4(F)C(O)CC32C)no1 (stereo not drawn) [Example 24, 6α,9α-Difluoro-11β-hydroxy-16α-methyl-17α-[(5-methylisoxazole-3-carbonyl)oxy]-3-oxo-androsta-1,4-diene-17β-carbothioic acid S-fluoromethyl ester]
clearance (in vivo): 2.82 L/h/kg | plasma clearance (in words) [3]: approaching hepatic blood flow

SMILES: Cc1cc(C(=O)OC2(C(=O)SCF)C(C)CC3C4CC(F)C5=CC(=O)C=CC5(C)C4(F)C(O)CC32C)on1 (stereo not drawn) [Example 25, 6α,9α-Difluoro-11β-hydroxy-16α-methyl-17α-[(3-methylisoxazole-5-carbonyl)oxy]-3-oxo-androsta-1,4-diene-17β-carbothioic acid S-fluoromethyl ester]
clearance (in vivo): 2.76 L/h/kg | plasma clearance (in words) [3]: approaching hepatic blood flow

SMILES: CC1CC2C3CC(F)C4=CC(=O)C=CC4(C)C3(F)C(O)CC2(C)C1(OC(=O)c1ccon1)C(=O)SCF (stereo not drawn) [Example 28, 6α,9α-Difluoro-11β-hydroxy-17α-[(isoxazole-3-carbonyl)oxy]-16α-methyl-3-oxo-androsta-1,4-diene-17β-carbothioic acid S-fluoromethyl ester]
clearance (in vivo): 3.06 L/h/kg | plasma clearance (in words) [3]: approaching hepatic blood flow

SMILES: Cc1ncsc1C(=O)OC1(C(=O)SCF)C(C)CC2C3CC(F)C4=CC(=O)C=CC4(C)C3(F)C(O)CC21C (stereo not drawn) [Example 41, 6α,9α-Difluoro-11β-hydroxy-16α-methyl-17α-[(4-methyl-1,3-thiazole-5-carbonyl)oxy]-3-oxo-androsta-1,4-diene-17β-carbothioic acid S-fluoromethyl ester]
clearance (in vivo): 2.52 L/h/kg

reduction of thymus weight (thymus weight): 78% | time after dosing up to which quantifiable in plasma [1]: up to 8 hours | clearance (in words) [2]: similar | pharmacokinetic parameters following intravenous administration (in words) [2]: the same
SMILES: CCC(=O)O[C@]1(C(=O)SCF)[C@H](C)C[C@H]2[C@@H]3C[C@H](F)C4=CC(=O)C=C[C@]4(C)[C@@]3(F)[C@@H](O)C[C@@]21C [Fluticasone propionate, 6α, 9α-Difluoro-17α-(1-oxopropoxy)-11β-hydroxy-16α-methyl-3-oxo-androsta-1,4-diene-17β-carbothioic acid S-fluoromethyl ester, reference compound]
inhibition of lung eosinophilia (lung eosinophilia): 41%

SMILES: C[C@@H]1C[C@H]2[C@@H]3C[C@H](F)C4=CC(=O)C=C[C@]4(C)[C@@]3(F)[C@@H](O)C[C@]2(C)[C@@]1(OC(=O)c1ccco1)C(=O)O [Metabolite (X)]
fold less active than the parent compound (glucocorticoid receptor; in vitro functional glucocorticoid agonist assays, relative to Example 1): > 1000 fold | EC50 [4]: > 250 nM | EC50 [5]: > 1000 nM
